Patent US8865672B2, “Prevention of tissue ischemia and related methods” (The United States of America, as represented by the …, priority 2006, dated 2014)

Key:
[1] = system: murine ASMC (WT, CD36 null, CD47 null); experiment: Intracellular cGMP in murine ASMC; assay type: cell-based, mouse
Summary of the method: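 Aortic smooth muscle cells from wild-type C57Bl/6, CD36-null or CD47-null mice, passage 1–4, plated overnight in full growth medium. Weaned to SM-GM + 0.1% BSA before treatment with NO donor and other agents. Intracellular cGMP measured by enzyme immunoassay.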

human platelets [2] = experiment: Human platelet adhesion assay; assay type: cell-based; settings: for stimulation of adhesion by TSP1: fibrinogen, in the presence of NO
Experimental: Bacteriological Petri dishes (35×10 mm, Becton Dickinson Labware) were pre-coated with collagen (3 μg/ml) or fibrinogen (15 μg/mL) overnight. Following aspiration of non-adherent matrix, dishes were blocked with 1% BSA. Fresh platelets were washed and suspended in Tyrode's buffer and allowed to adhere for 30 minutes. Plates were washed with PBS, fixed with 0.5% glutaraldehyde and stained with 0.02% toluidine blue. Adherent platelets were counted microscopically. In some experiments platelets were pre-incubated with the Rap1 geranylgeranyltransferase inhibitor GGTI-298 (10 μM) for 30 minutes prior to initiating adhesion.

human platelets [3] = experiment: Thrombin-induced human platelet aggregation; assay type: cell-based; settings: for NO delay of thrombin-induced platelet aggregation: DEA/NO 10 μM
Summary of the method: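 Washed human platelets in Tyrode's buffer pH 7.4 (2×10^5/μl) are stirred at 1200 rpm and 37 °C, and optical aggregation is followed for 5 min; under static conditions, A400 is tracked for 5 min instead. TSP1 agents or 1 μM peptide C6d are pre-incubated for 15 min before thrombin ± DEA/NO (10 μM).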

[4] = system: vascular cell outgrowth from muscle explants; experiment: Explant invasion assay in 3D collagen; assay type: cell-based, mouse; settings: TSP1 1 μg/ml
Experimental: Muscle biopsies from the pectoralis major muscle of 8 to 12 week old wild type or transgenic mice were harvested and explanted into 100 μl of type I collagen gel in 96-well tissue culture plates as described (Isenberg et al., Matrix Biol 24:110-123, 2005). Following gelation, the embedded explants were overlayed with 75 μl of EGM+2% FCS in the presence or absence of a dose range of DETA/NO (0.01-1000 μM) and other indicated treatments and then incubated at 37° C. and 5% CO2 for 7 days, at which time maximum vascular cell migration through the matrix was measured.

human platelets [5] = experiment: cGMP in human platelets; assay type: cell-based
Experimental: Fresh human platelets at 2×10^5 platelets/μl in Tyrode's buffer or PRP were pre-incubated with the indicated agents for 15 minutes and then challenged with DEA/NO for the indicated time interval at room temperature and total cGMP determined via immunoassay (Amersham, GE Healthcare, Buckinghamshire, UK). Murine WT and TSP1-null platelets were treated with DEA/NO and cGMP flux measured.

Substance: TSP1: thrombospondin-1 prepared from human platelets
- NO-stimulated cGMP ([1]; CD36 null MASMC): completely inhibited
- NO-stimulated cGMP ([1]; CD47 null MASMC): did not significantly inhibit
- NO-stimulated cGMP ([1]; WT MASMC): inhibited
- basal adhesion of platelets on type I collagen and fibrinogen (human platelets [2]; TSP1 2.2 nM): moderately increased basal adhesion
- decrease in platelet adhesion in response to exogenous NO (human platelets [2]; fibrinogen or collagen, DEA/NO 10 μM): lost
- stimulation of adhesion by TSP1 (human platelets [2]): 55±9%
- stimulation of adhesion by TSP1 (human platelets [2]; following Rap1 blockade with GGTI-298): 25±8%
- platelet aggregation at high shear in the presence of NO (human platelets [3]; GGTI-298 preincubation): maintained its ability to accelerate platelet aggregation
- lowest concentration tested, sufficient to accelerate platelet aggregation in the presence of NO (human platelets [3]; high shear): 0.022 nM
- NO delay of thrombin-induced platelet aggregation (human platelets [3]; high shear, thrombin 0.2 U/ml): reversed in a dose-dependent manner
- NO delay of thrombin-induced platelet aggregation (human platelets [3]; static / low shear conditions): completely abrogated
- ability to antagonize NO-stimulated vascular outgrowth ([4]; CD36-null explants): preserved
- ability to antagonize NO-stimulated vascular outgrowth ([4]; CD47-null explants): lost
- NO-stimulated cGMP flux in platelets (human platelets [5]; PRP, TSP1 2.2 nM): continued to block
- NO stimulated cGMP in platelets (human platelets [5]; washed human platelets in Tyrode's buffer): decreased
